The values below come from US6967205B1, “Compounds with antibacterial and antiparasitic properties” (New Pharma Research Sweden AB, priority 1999, dated 2005).

In brackets after ≈: the same amount, converted by molar mass. Bounds are passed on as bounds.

Experiment [1] relates to Eimeria acervulina, E. maxima, E. necatrix, E. tenella and E. brunetti. In words: Prophylactic anticoccidial activity in chickens of Habbared X breed (5 Eimeria strains). The experiment is classed as in vivo. Particulars: drug in feed (JA 39, JA 42 100 ppm; Coxistac 60 ppm). Here is the method: The anticoccidial activity of the present compounds as prophylactic agents was evaluated in vivo on […] one day old (1 day after hatch) chickens of Habbared X breed. The chickens were divided into four groups of 20 birds each, and each group was located in a separate pen (1 m×1 m). The chickens were then fed with unmedicated food up to day 7 after hatch. Fresh water was supplied ad libitum .
On day 8 after hatch, the four groups were fed as follows (1 ppm=1 mg drug/kg feed): • Group #1: feed containing JA 39 (100 ppm); • Group #2: feed containing JA 42 (100 ppm); • Group #3: feed containing Coxistac (60 ppm), a known anticoccidial agent (see U.S. Pat. No. 3,857,948);
Group #4: feed containing no drug (control group).
The chickens were fed as above on day 8 and 9 after hatch. On day 10 after hatch, each chicken was infected orally by 6 000-7 000 oocysts containing a mixture of 5 mature sporulated strains, namely Eimeria acervulina, E. maxima, E. necatrix, E. tenella and E. brunetti. The groups #1-3 received drug as above from day 10 to 21 after hatch.
From day 14 to 21 after hatch, fresh fecal droplets were collected and examined daily. The average number of oocysts/g faeces was then calculated in accordance with the so-called Mc-Master technique (Soulsby, E. J., Helminths, Arthropods & Protozoa of domesticated animals, p. 789, 6th Ed., Williams & Wilkins Co. Baltimore (USA), Tindall & Cassell Ltd., London, 1968). The final weight of and mean total amount of feed consumed by each bird were also examined, and the results are summarized in Table 8 hereinbelow.

For experiment [2], the system named is Staphylococcus (ATCC 6538). The experiment can be described thus: M.I.C. by broth dilution method (NCCLS 1988), gram-positive bacteria. The experiment is classed as cell-based. The settings on record: for MIC: ATCC6538, in vitro broth dilution, read-out: M.I.C. values Staph. (ATCC 6538). Here is the method: (§1) The antibacterial activity of the present compounds was investigated by in vitro evaluation of their M.I.C. (Minimum Inhibitory Concentration) values. The evaluation was conducted in complete accordance with the “Broth dilution method”, as outlined by the U.S. National Committee for Clinical Laboratory Standards “NCCLS 1988”.
(§2) Solutions of the present compounds were prepared by dissolving 0.01 g of a test compound in either 10% KOH (aq) or a 10% KOH/DMF mixture, after which sterile, distilled H2O was added up to a total volume of 10 ml, thereby yielding a test compound concentration of 1 000 μg/ml.
(§3) In this evaluation, the antibacterial activity of the present compounds and enrofloxacin as reference compound was tested against seven strains of gram-positive bacteria, namely Bacillus subtilus (ATCC 6633), Bacillus cereus, Streptococcus faecium, Micrococcus Luteus (ATCC 9341), Staph. aureus (ATCC 29737), Staph. epidermidis (ATCC 12228) and Staphylococcus (ATCC 6538).

Experiment [3] has as its system Bacillus cereus. The description is as above. It is filed as cell-based. The settings on record: in vitro broth dilution. The protocol:
as §1, §2, §3

Experiment [4] relates to Staph. aureus (ATCC 29737). Described as above. The settings on record: for MIC: Staphylococcus aureus, ATCC29737, in vitro broth dilution. The experiment is classed as cell-based. Here is the method: as §1, §2, §3
Experiment [5] has as its system Micrococcus Luteus (ATCC 9341). The experiment is described as above. The experiment is classed as cell-based. The settings on record: for MIC: ATCC9341, in vitro broth dilution, read-out: M.I.C. values Microc. Luteus. Here is the method: as §1, §2, §3
Experiment [6] deals with Bacillus subtilus (ATCC 6633). Described as above. It is filed as cell-based. The settings on record: for MIC: ATCC6633, in vitro broth dilution. The protocol:
as §1, §2, §3

The test system of experiment [7] is Staph. epidermidis (ATCC 12228). The experiment is described as above. The experiment is classed as cell-based. The settings on record: for MIC: Staphylococcus epidermidis, ATCC12228, in vitro broth dilution. Here is the method:
as §1, §2, §3

Experiment [8] has as its system Streptococcus faecium. The description is as above. The experiment is classed as cell-based. Particulars: in vitro broth dilution; for MIC: Enterococcus faecium, read-out: M.I.C. values Streptoc. faecium. Here is the method:
as §1, §2, §3

[9] abbreviates: in vitro broth dilution, unit assumed.

As for `CC[C@@H](C(=O)[C@@H](C)[C@@H](O)[C@H](C)[C@@H]1O[C@@H]([C@@H](CC)C(=O)O)CC[C@@H]1C)[C@H]1O[C@]2(C=C[C@@H](O)[C@]3(CC[C@@](C)([C@H]4CC[C@](O)(CC)[C@H](C)O4)O3)O2)[C@H](C)C[C@@H]1C` [Coxistac, reference compound], the “Average number of Eimeria spp. oocysts/g faeces, day after hatch 14” value in experiment [1] (day 14 after hatch, infected day 10) was found to be 0.0 oocysts/g faeces. Moreover, in experiment [1] (day 15 after hatch, infected day 10), the “Average number of Eimeria spp. oocysts/g faeces, day after hatch 15” value was found to be 3000 oocysts/g faeces. The “Average number of Eimeria spp. oocysts/g faeces, day after hatch 16” value in experiment [1] (day 16 after hatch, infected day 10) came out at 4000 oocysts/g faeces. Also, the “Average number of Eimeria spp. oocysts/g faeces, day after hatch 17” value in experiment [1] (day 17 after hatch, infected day 10) is 7000 oocysts/g faeces. Further, the “Average number of Eimeria spp. oocysts/g faeces, day after hatch 18” value in experiment [1] (day 18 after hatch, infected day 10) is 2000 oocysts/g faeces. For the same molecule, the “Average number of Eimeria spp. oocysts/g faeces, day after hatch 19” value in experiment [1] (day 19 after hatch, infected day 10) is recorded as 2000 oocysts/g faeces. For the same molecule, in experiment [1] (day 21 after hatch, infected day 10), the “Average number of Eimeria spp. oocysts/g faeces, day after hatch 21” value amounted to 0.0 oocysts/g faeces. Moreover, in experiment [1] (final weight, infected chickens), the “Mean body weight” value is 62.0 g. Further, the “Mean amount of feed consumed” value in experiment [1] (mean total feed per bird, infected chickens) worked out at 120 g. Moreover, the “Average number of Eimeria spp. oocysts/g faeces, Total” value in experiment [1] (total of days 14-21 after hatch) is on record as 18000 oocysts/g faeces.

For the molecule `O=C(O)c1cn(C2CC2)c2cc(N(CC3CCCO3)S(=O)(=O)C(F)(F)F)c(F)cc2c1=O` (stereo not shown) [JA 138, 1-cyclopropyl-6-fluoro-4-oxo-7-{(tetrahydro-2-furanylmethyl)[(trifluoromethyl)sulfonyl]amino}-1,4-dihydro-3-quinolinecarboxylic acid], the MIC was 0.12 µg/mL (≈ 0.251 µM) in experiment [2]; 0.06 µg/mL (≈ 0.125 µM) in experiment [3]; 0.25 µg/mL (≈ 0.523 µM) in experiment [4]; 2 µg/mL (≈ 4.18 µM) in experiment [5]; 0.12 µg/mL (≈ 0.251 µM) in experiment [6]; 0.12 µg/mL (≈ 0.251 µM) in experiment [7]. Also, the MIC in experiment [8] worked out at 1 µg/mL (≈ 2.09 µM).

With `O=C(O)c1cn(C2CC2)c2cc(N(CC3CCCO3)C(=O)c3cccs3)c(F)cc2c1=O` (stereo not shown) [JA 140, 1-cyclopropyl-6-fluoro-4-oxo-7-[(tetrahydro-2-furanylmethyl)(2-thienylcarbonyl)amino]-1,4-dihydro-3-quinolinecarboxylic acid], the MIC in experiment [2] stood at 0.06 µg/mL (≈ 0.131 µM); in experiment [3], 0.06 µg/mL (≈ 0.131 µM); in experiment [4] it was 0.12 µg/mL (≈ 0.263 µM); in experiment [5], 1 µg/mL (≈ 2.19 µM); in experiment [6], 0.06 µg/mL (≈ 0.131 µM); in experiment [7] it was 0.12 µg/mL (≈ 0.263 µM). Besides, the MIC in experiment [8] was determined as 0.5 µg/mL (≈ 1.1 µM).

For the molecule `O=C(O)c1cn(C2CC2)c2cc(N(CC3CCCO3)c3cncc(Cl)n3)c(F)cc2c1=O` (stereo not shown) [JA 141, 7-[(6-chloro-2-pyrazinyl)(tetrahydro-2-furanylmethyl)amino]-1-cyclopropyl-6-fluoro-4-oxo-1,4-dihydro-3-quinolinecarboxylic acid], the MIC in experiment [2] came out at 0.12 µg/mL (≈ 0.262 µM); in experiment [3], 0.12 µg/mL (≈ 0.262 µM); in experiment [4], 0.25 µg/mL (≈ 0.545 µM); in experiment [5] it was 2 µg/mL (≈ 4.36 µM); in experiment [6], 0.12 µg/mL (≈ 0.262 µM); in experiment [7], 0.12 µg/mL (≈ 0.262 µM). Moreover, the MIC in experiment [8] amounted to 1 µg/mL (≈ 2.18 µM).

Regarding `O=C(O)c1cn(C2CC2)c2cc(N(CC3CCCO3)c3cccc(Cl)n3)c(F)cc2c1=O` (stereo not shown) [JA 143, 7-[(6-chloro-2-pyridinyl)(tetrahydro-2-furanylmethyl)amino]-1-cyclopropyl-6-fluoro-4-oxo-1,4-dihydro-3-quinolinecarboxylic acid], the MIC was 0.12 µg/mL (≈ 0.262 µM) in experiment [2]; 0.12 µg/mL (≈ 0.262 µM) in experiment [3]; 0.25 µg/mL (≈ 0.546 µM) in experiment [4]; above 2 µg/mL in experiment [5]; 0.12 µg/mL (≈ 0.262 µM) in experiment [6]; 0.12 µg/mL (≈ 0.262 µM) in experiment [7]. Also, the MIC in experiment [8] was 1 µg/mL (≈ 2.18 µM).

In experiment [2] (setting [9]), `CC(=O)CC(=O)N(CC1CCCO1)c1cc2c(cc1F)c(=O)c(C(=O)O)cn2C1CC1` (stereo not shown) [JA 144] came in with a M.I.C. values Staph. (ATCC 6538) of 0.06 µg/mL. Further, the M.I.C. values Bacillus cereus in experiment [3] (unit assumed) was 0.12 µg/mL. For the same molecule, the M.I.C. values Staph. aureus in experiment [4] (setting [9]) was 0.12 µg/mL. The molecule further showed a M.I.C. values Microc. Luteus in experiment [5] (setting [9]) of 1 µg/mL. Also, the M.I.C. values Bacillus subtilus in experiment [6] (setting [9]) was 0.12 µg/mL. In addition, the M.I.C. values Staph. epidermidis in experiment [7] (setting [9]) came to 0.12 µg/mL. The molecule further showed a M.I.C. values Streptoc. faecium in experiment [8] (unit assumed) of 0.5 µg/mL.

With `O=C(O)c1cn(C2CC2)c2cc(N(CCc3ccncc3)CC3CCCO3)c(F)cc2c1=O` (stereo not shown) [JA 145, 1-cyclopropyl-6-fluoro-4-oxo-7-[[2-(4-pyridinyl)ethyl](tetrahydro-2-furanylmethyl)amino]-1,4-dihydro-3-quinolinecarboxylic acid], the MIC was determined as 0.12 µg/mL (≈ 0.266 µM) in experiment [2]; 0.12 µg/mL (≈ 0.266 µM) in experiment [3]; 0.12 µg/mL (≈ 0.266 µM) in experiment [4]; 2 µg/mL (≈ 4.43 µM) in experiment [5]; 0.12 µg/mL (≈ 0.266 µM) in experiment [6]; 0.12 µg/mL (≈ 0.266 µM) in experiment [7]. Moreover, the MIC in experiment [8] is 1 µg/mL (≈ 2.21 µM).

As for `O=C(O)c1cn(C2CC2)c2cc(N(CCc3ccccn3)CC3CCCO3)c(F)cc2c1=O` (stereo not shown) [JA 146, 1-cyclopropyl-6-fluoro-4-oxo-7-[[2-(2-pyridinyl)ethyl](tetrahydro-2-furanylmethyl)amino]-1,4-dihydro-3-quinolinecarboxylic acid], the MIC turned out to be 0.12 µg/mL (≈ 0.266 µM) in experiment [2]; 0.12 µg/mL (≈ 0.266 µM) in experiment [3]; 0.12 µg/mL (≈ 0.266 µM) in experiment [4]; 2 µg/mL (≈ 4.43 µM) in experiment [5]; 0.12 µg/mL (≈ 0.266 µM) in experiment [6]; 0.12 µg/mL (≈ 0.266 µM) in experiment [7]. Moreover, in experiment [8], the MIC turned out to be 1 µg/mL (≈ 2.21 µM).

Consider `COCC(C)N(C(=O)CC(C)=O)c1cc2c(cc1F)c(=O)c(C(=O)O)cn2C1CC1` (stereo not shown) [JA 148, 7-[acetoacetyl(2-methoxy-1-methylethyl)amino]-1-cyclopropyl-6-fluoro-4-oxo-1,4-dihydro-3-quinolinecarboxylic acid], for which the MIC stood at 0.12 µg/mL (≈ 0.287 µM) in experiment [2]; 0.06 µg/mL (≈ 0.143 µM) in experiment [3]; 0.12 µg/mL (≈ 0.287 µM) in experiment [4]; 2 µg/mL (≈ 4.78 µM) in experiment [5]; 0.12 µg/mL (≈ 0.287 µM) in experiment [6]; 0.12 µg/mL (≈ 0.287 µM) in experiment [7]. For the same molecule, in experiment [8], the MIC turned out to be 1 µg/mL (≈ 2.39 µM).

Regarding `COCC(C)N(c1cc2c(cc1F)c(=O)c(C(=O)O)cn2C1CC1)S(=O)(=O)c1ccc([N+](=O)[O-])cc1` (stereo not shown) [JA 149, 1-cyclopropyl-6-fluoro-7-{(2-methoxy-1-methylethyl)[(4-nitrophenyl)sulfonyl]amino}-4-oxo-1,4-dihydro-3-quinolinecarboxylic acid], the MIC in experiment [2] turned out to be 0.12 µg/mL (≈ 0.231 µM); in experiment [3], 0.12 µg/mL (≈ 0.231 µM); in experiment [4], 0.12 µg/mL (≈ 0.231 µM); in experiment [5] it was 2 µg/mL (≈ 3.85 µM); in experiment [6] it was 0.12 µg/mL (≈ 0.231 µM); in experiment [7], 0.12 µg/mL (≈ 0.231 µM). Further, the MIC in experiment [8] amounted to 2 µg/mL (≈ 3.85 µM).
